# Measured values taken from ChEMBL document CHEMBL1157539, “Thousands of chemical starting points for antimalarial lead identification” (Nature, 2010).
# “And” between values parts separate entries of the source, which are not always exact repeats. Identical values can stand only once.
# System: Plasmodium falciparum
# Experiment: GSK_TCMDC: Inhibition of Plasmodium falciparum 3D7 in whole erythrocytes, using parasite LDH activity as an index of growth.
# Type: functional, organism-based
# Conditions: not given
row,Structure (SMILES),XC50
1,COc1ccc2ncc(F)c(CCN3CC(O)C(CNCc4nc5c(cc4Cl)OCC(=O)N5)C3)c2n1 (configuration not stated),1280 nM and 954 nM
2,N#Cc1c(Cl)cccc1Oc1ccc(S(=O)(=O)NC2CCC(CN3CCC(c4c[nH]c5ccccc45)CC3)CC2)cc1 (configuration not stated),714 nM

# Same assay, conditions: Plasmodium falciparum, 3D7
row,Structure (SMILES),XC50
1,OC1CCC(Nc2ccc3ncc(-c4ccc(Cl)cc4)n3n2)CC1 (configuration not stated),824 nM
2,O=C(NC(c1ccccc1)c1ccc2cccnc2c1O)c1ccccc1 (configuration not stated),428 nM
3,CCCN(CCC)C(=O)c1cc(C(=O)N[C@@H](Cc2ccccc2)[C@H](O)CNCc2cccc(OC)c2)cc(N2CCCCS2(=O)=O)c1,549 nM
4,COC(=O)C(C)(C)c1ccc(CC(C)NCC(O)c2cccc(C(F)(F)F)c2)cc1 (configuration not stated),837 nM
5,CCNC(=O)Nc1ccc(-c2ccc(-c3nc4cccc(C)c4[nH]3)s2)cc1,1070 nM
6,COc1ccc2ncc(F)c(CCN3CC(O)C(CNCc4nc5c(cc4Cl)OCC(=O)N5)C3)c2n1 (configuration not stated),830 nM
7,O=C(Nc1ccc2c(c1)CN(Cc1ccc(N3CCCC3)o1)CCC2)c1cncs1,1570 nM
8,CCn1c(CN2CCC(C)CC2)nc2cc(NC(=O)c3cccs3)ccc21,565 nM
9,CCOC(=O)C1=C(C)NC2=C(C(=O)CC(C)(C)C2)C1c1ccc(Cl)cc1 (configuration not stated),923 nM
10,COC(=O)/C=C/c1ccc(CC(C)NCC(O)c2cccc(Br)c2)cc1 (configuration not stated),725 nM
11,CC(C)C(C)(C#N)NC(=O)CSc1nc2ccc([N+](=O)[O-])cc2s1 (configuration not stated),1030 nM
12,CC1(C)Cc2c([nH]c3ccccc23)C(CCCCCCCCC2=NC(C)(C)Cc3c2[nH]c2ccccc32)=N1,933 nM
13,O=C(/C=C/c1ccc(Cl)c(Cl)c1)NCCCCCN1CCC(CCNC(=O)c2snnc2-c2ccccc2)CC1,822 nM
14,O=C(/C=C/c1ccc(Cl)c(Cl)c1)NCCCCCN1CCC(NC(=O)Nc2cc(Cl)nc(Cl)c2)CC1,976 nM
15,CN(C(=O)c1snnc1-c1ccccc1)C1CCN(CCCCCNC(=O)/C=C/c2ccc(Cl)c(Cl)c2)CC1,186 nM
16,CCC1(CC)C(=O)N=C(N2CCCCC2)N(C)C1=O,303 nM
17,O=C(Cn1c(CCc2cccc(F)c2F)nc(=O)c2ccccc21)N(CCN1CCCCC1)Cc1ccc(-c2ccc(C(F)(F)F)cc2)cc1,757 nM
18,Cc1cc(=O)[nH]c(-n2nc(C)cc2NC(=O)C(c2ccccc2)c2ccccc2)n1,839 nM
19,Cc1cc(Nc2cccc(C(F)(F)F)c2)nc(NCc2ccccc2)n1,148 nM
20,O=C(NCCCCN1CC=C(c2ccc3c(c2OCC2CC2)CCCC3)CC1)c1ccc(-c2ccc(C(F)(F)F)cc2)cc1,540 nM
21,CC(C)c1ccc(OCC(O)CN(C)C(C)C(O)c2ccccc2)c(Br)c1 (configuration not stated),815 nM
22,Fc1cc(Cl)ccc1Nc1ccnc2cc(-c3ccc(CN4CCOCC4)o3)ccc12,639 nM
23,C=CC[C@H](C[C@H](O)[C@H](Cc1ccccc1)NC(=O)c1ccc(-c2cccnn2)cc1)C(=O)NC1CCCCC1,1190 nM
24,CCCC(CNCc1cccc(OCC)c1)CNc1cc(=O)c2ccccc2[nH]1 (configuration not stated),855 nM

row,Structure (SMILES),XC50
1,CCN(CC)CCCC(C)Nc1ccnc2cc(C#N)ccc12 (configuration not stated),139 nM
2,CCCCCCC1(C)N=C(N)N=C(N)C1c1ccc(Cl)c(Cl)c1 (configuration not stated),132 nM
3,Cc1cccc2nc(-c3cccc(-c4cccc(C(=O)NCCN5CCCC5)c4)c3)[nH]c12,833 nM
4,CN(C)C(CNc1ncnc2cc(Cl)ccc12)Cc1ccccc1 (configuration not stated),872 nM
5,CCOC(=O)c1cncc(/C=C/c2cc(C)cnc2N)c1,424 nM
6,Cc1cc(NCCc2ccccc2)nc(NC(=N)Nc2cccc(F)c2)n1,899 nM
7,CC(C#N)Cc1ccc(-c2cnc(N)c3cc(-c4ccnc(N)n4)ccc23)cc1 (configuration not stated),986 nM
8,COc1ccc2c(c1)ncn2-c1cc(OCc2ccncc2Br)c(C(N)=O)s1,609 nM
9,COc1ccc(Nc2ccnc3cc(Cl)ccc23)cc1OC,1120 nM
10,CCc1ccc(CNCC(CCNc2cc(=O)c3ccccc3[nH]2)NCc2cc(Br)cc(Br)c2)o1 (configuration not stated),638 nM
11,CC(=O)Nc1cccc(C(=O)Nc2ccc(-c3cccc(-c4nc5cc(C(F)(F)F)ccc5[nH]4)c3)cc2)c1,148 nM
12,COc1ccc2nccc([C@@H](O)CN3CCC(NCc4ccc5c(n4)NCCC5)CC3)c2c1,738 nM
13,CS(=O)(=O)c1ccc(-c2cnc(N)c(-c3ccc(O)cc3)c2)cc1,1360 nM
14,CC1(C)N=C(N)N=C(N)N1OCc1cc(Cl)c(CON2C(N)=NC(N)=NC2(C)C)cc1Cl,37.8 nM
15,Cc1cccc(-c2nn(-c3ccccc3)c3[nH]c(=O)c(CNC4CCCC4)cc23)c1,759 nM
16,COc1cc(NC(=O)c2sc(-c3ccc(Cl)cc3)cc2NC(=O)c2cccnc2)ccc1OCCN1CCCC1,380 nM
17,CCCSc1nc2c(c(=O)n1Cc1ccco1)C1(CCCCC1)Cc1ccccc1-2,424 nM
18,c1cncc(CCNCc2ccc(-c3cccc(-c4nc5ccccc5[nH]4)c3)cc2)c1,164 nM
19,Cc1cc(NC2CCN(CC3CCCCC3)CC2)nc(Nc2ccccc2Cl)n1,642 nM
20,COc1ccc(C=NN=c2cc(C)[nH]c3ccccc23)cc1OC,859 nM
21,CCc1ccccc1OCCCON1C(=N)N=C(N)NC1(C)C,3.2 nM
22,CSC1=NC(=Nc2c(C)cccc2C)C2(CCCCC2)N1c1ccccc1Cl,817 nM
23,CN(C)Cc1ccc(-c2cc3c(-c4ccc(CN(C)C)cc4)ccnc3[nH]2)cc1,887 nM
24,Nc1nc(N)c2c(ccn2Cc2cc3c(cc2Cl)OCO3)n1,765 nM

row,Structure (SMILES),XC50
1,CCOc1ccc(Cc2c(C)nc3nc(N)nc(N)c3c2C)cc1,1060 nM
2,CO/C(=C\C=C\c1cc2cc(Cl)c(Cl)cc2[nH]1)C(=O)NC1CCN(CCCc2ccccc2)CC1,767 nM
3,Cc1[nH]c(C)c(-c2ccc(OCc3cc(F)cc(F)c3)nc2)c(=O)c1Cl,86.8 nM
4,Cc1ccc2c(=O)c3cc(C)ccc3[nH]c2c1,424 nM
5,CC(C)CCNC(=O)C1Cc2c([nH]c3cc(Br)ccc23)C2(CCN(Cc3ccccc3)CC2)N1 (configuration not stated),792 nM
6,CC(=O)Oc1c(C2CCN(CCCCNC(=O)c3ccc(-c4ccc(C#N)cc4)cc3)CC2)ccc2c1CCCC2,1130 nM
7,O=C(Nc1ccc(OC2CCN(Cc3ccccc3)C2)c(Cl)c1)c1ccc(F)cc1 (configuration not stated),791 nM
8,c1ccc(CN2CCC(NCc3ccc(-c4ccc(CNC5CCCC5)cc4)cc3)CC2)cc1,294 nM
9,COCCN1CCC(N(Cc2ccc(-c3ccc(OC(F)(F)F)cc3)cc2)C(=O)Cn2c(CCc3cccc(F)c3F)cc(=O)c3ccccc32)CC1,1210 nM
10,O=C(CC1CCCC1)Nc1ccc2c(c1)CCC2,868 nM
11,CN(C(=O)c1ccc(Br)cc1)c1ccccc1[N+](=O)[O-],926 nM
12,N#Cc1c(Cl)cccc1Oc1ccc(S(=O)(=O)NC2CCC(CN3CCC(c4c[nH]c5ccccc45)CC3)CC2)cc1 (configuration not stated),1070 nM
13,COc1ccc(Cn2c(Nc3cccc(C(F)(F)F)c3)nc3cc(C(=O)NCCN4CCCC4)cnc32)cc1Cl,915 nM
14,COc1ccc(C2C(C(=O)OC3CCCC3)=C(C)NC3=C2C(=O)CCC3)cc1Br (configuration not stated),593 nM
15,CC1CCCN(Cc2cc(Cl)cc(Cl)c2O)C1 (configuration not stated),933 nM
16,CCCCCC(C)C(C)c1cc(O)c2c3c(c(=O)oc2c1)CN(Cc1ccccc1)CC3 (configuration not stated),605 nM
17,Cc1cc(=NN=Cc2ccccc2F)c2ccccc2[nH]1,919 nM
18,CCCc1cc(=O)oc2cc(OC)c(C(=O)CC(C)C)c(OC)c12,1010 nM
19,CCCCOC(=O)NCCCC[C@H](NC(=O)OC(C)(C)C)C(=O)N[C@H](C(=O)OC(c1ccccc1)c1ccccc1)[C@H]1O[C@@H](n2ccc(=O)[nH]c2=O)[C@@H]2OC(C)(C)O[C@@H]21,1090 nM
20,CS(=O)(=O)c1ccc(CNCc2ccc(-c3ccc(-c4nc5cc(F)ccc5[nH]4)s3)cc2)cc1,268 nM
21,CCOc1ccc(C2CCN(CCCCNC(=O)c3ccc(NC(=O)c4ccc(Cl)cc4)cc3)CC2)c(Cl)c1,731 nM
22,COc1ccc2nccc([C@@H](O)CN3CCC(NCCOc4ccccc4[N+](=O)[O-])CC3)c2c1,384 nM
